Experimental data from the NIST ThermoML archive (doi:10.1016/j.jct.2016.07.041).

Assay: xn = mol fraction of the nth substance listed
Conditions: 101 kPa, Liquid; for viscosity: Capillary tube (Ostwald / Ubbelohde) method; for mass density: Vibrating tube method

CCCCn1cc[n+](C)c1.F[B-](F)(F)F [1-butyl-3-methylimidazolium tetrafluoroborate] + O
Conditions	mass density, 293.15 K [kg/m3]	mass density, 303.15 K [kg/m3]	mass density, 313.15 K [kg/m3]	mass density, 323.15 K [kg/m3]	mass density, 333.15 K [kg/m3]	viscosity, 293.15 K [mPa·s]	viscosity, 303.15 K [mPa·s]	viscosity, 313.15 K [mPa·s]	viscosity, 323.15 K [mPa·s]	viscosity, 333.15 K [mPa·s]
x1 = 0.0998	1103.7	1097.3	1090.3	1083.4	1076.4	3.23	2.41	1.88	1.51	1.24
x1 = 0.1998	1141.5	1134.5	1126.9	1119.6	1112.2	5.52	4.12	3.2	2.56	2.1
x1 = 0.2994	1161.1	1153.8	1146.3	1139	1131.5	8.41	6.21	4.78	3.79	3.1
x1 = 0.3992	1173.4	1166	1158.7	1151.4	1144	12.3	8.95	6.79	5.34	4.31
x1 = 0.5005	1182.3	1175	1167.7	1160.5	1153.3	17.96	12.87	9.63	7.5	6
x1 = 0.5984	1188.9	1181.6	1174.3	1167.1	1160.1	25.98	18.1	13.27	10.11	7.99
x1 = 0.6985	1194.2	1187	1179.8	1172.6	1165.7	39.21	26.48	18.9	14.06	10.79
x1 = 0.7988	1198.5	1191.4	1184.3	1177.1	1170	59.53	38.86	26.55	19.05	14.31
x1 = 0.8982	1202	1195	1187.8	1180.6	1173.6	89.35	55.67	37.01	25.16	18.53
x1 = 1	1205.1	1198	1190.8	1183.7	1176.8	139.12	82.49	52.33	35.16	24.69

NCCO [2-aminoethan-1-ol] + CCCCn1cc[n+](C)c1.F[B-](F)(F)F
Conditions	mass density, 293.15 K [kg/m3]	mass density, 303.15 K [kg/m3]	mass density, 313.15 K [kg/m3]	mass density, 323.15 K [kg/m3]	mass density, 333.15 K [kg/m3]	viscosity, 293.15 K [mPa·s]	viscosity, 303.15 K [mPa·s]	viscosity, 313.15 K [mPa·s]	viscosity, 323.15 K [mPa·s]	viscosity, 333.15 K [mPa·s]
x2 = 0	1015.5	1007.6	999.7	991.7	983.6	23.65	14.75	9.78	6.81	4.99
x2 = 0.1001	1065.1	1057.3	1049.3	1041.4	1033.4	26.23	16.27	10.72	7.39	5.38
x2 = 0.2	1098.6	1090.6	1082.8	1075	1067.2	29.02	17.98	11.84	8.21	6.02
x2 = 0.2999	1123	1115.4	1107.6	1099.8	1092.1	32.91	20.36	13.45	9.29	6.82
x2 = 0.3751	1137.9	1130.3	1122.5	1114.8	1107.1	36.29	22.48	14.89	10.41	7.57
x2 = 0.5002	1157.4	1149.9	1142.3	1134.7	1127.1	43.39	26.71	17.78	12.4	9.11
x2 = 0.5997	1169.7	1162.5	1154.9	1147.4	1139.9	51.66	31.82	20.98	14.53	10.6
x2 = 0.6996	1180.2	1173	1165.4	1158.2	1150.7	61.28	37.57	24.39	17.03	12.51
x2 = 0.8	1189.4	1182.3	1174.8	1167.5	1160.3	75.78	46.5	30.43	21.12	15.41
x2 = 0.9003	1197.8	1190.6	1183.4	1176.1	1169.1	98.71	59.85	39.19	26.65	19.22

NCCO [2-aminoethan-1-ol] + O
Conditions	mass density, 293.15 K [kg/m3]	mass density, 303.15 K [kg/m3]	mass density, 313.15 K [kg/m3]	mass density, 323.15 K [kg/m3]	mass density, 333.15 K [kg/m3]	viscosity, 293.15 K [mPa·s]	viscosity, 303.15 K [mPa·s]	viscosity, 313.15 K [mPa·s]	viscosity, 323.15 K [mPa·s]	viscosity, 333.15 K [mPa·s]
x1 = 0.0996	1010.9	1006.8	1002.1	996.9	991.2	2.54	1.89	1.45	1.15	0.93
x1 = 0.1991	1021.6	1016.1	1010.2	1004	997.6	5.52	3.84	2.8	2.09	1.62
x1 = 0.2986	1027.4	1021	1014.4	1007.5	1000.4	10.06	6.65	4.62	3.35	2.52
x1 = 0.3977	1029.4	1022.5	1015.4	1007.8	1000.6	15.1	9.64	6.52	4.66	3.41
x1 = 0.4967	1028.9	1021.5	1014.2	1006.6	999	19.57	12.22	8.1	5.67	4.09
x1 = 0.5958	1027	1019.4	1011.9	1004.3	996.5	22.91	14.08	9.33	6.46	4.65
x1 = 0.6946	1024.4	1016.8	1009	1001.2	993.4	24.48	15.01	9.75	6.9	4.95
x1 = 0.7932	1021.6	1013.8	1006	998.2	990.2	25	15.36	9.98	6.91	4.99
x1 = 0.8919	1018.7	1010.8	1002.9	995	987	24.58	15.16	9.94	6.89	4.99
x1 = 1	1015.5	1007.6	999.7	991.7	983.6	23.65	14.75	9.78	6.81	4.99
